Activity data for five compounds are collected here from patent publication US5399543A, “3-[4-(phenylmethoxy)phenyl]-1-substituted-6-haloalkyl-uracil herbicides” (FMC Corporation, priority 1993, dated 1995).

The subject of experiment [1] is Johnsongrass. As to the kind of experiment: Preemergence herbicidal activity, johnsongrass. Format: in vivo. The settings on record: Sorghum halepense, pre-emergence, 0.3 kg/ha, after 17-21 days, read-out: Preemergence herbicidal activity (% control), Johnsongrass. As to the method:
(§1) The 3-[4-(phenylmethoxy)phenyl]-1-substituted-6-haloalkyluracil herbicides of this invention were tested for pre- and postemergence herbicidal activity using a variety of crops and weeds. The test plants included soybean (Glycine max var. Williams), field corn (Zea mays var. Agway 425X), wheat (Triticum aestivum var. Wheaton), morningglory (Ipomea lacunosa or Ipomea hederacea), velvetleaf (Abutilon theophrasti), green foxtail (Setaria viridis), Johnsongrass (Sorghum halepense), blackgrass (Aloepecurus myosuroides), common chickweed (Stellaria media), and common cocklebur (Xanthium pensylvanicum).
(§2) For preemergence testing, two disposable fiber flats (8 cm×15 cm×25 cm) for each rate of application of each candidate herbicide were filled to an approximate depth of 6.5 cm with steam-sterilized sandy loam soil. The soil was leveled and impressed with a template to provide five evenly spaced furrows 13 cm long and 0.5 cm deep in each flat. Seeds of soybean, wheat, corn, green foxtail, and johnsongrass were planted in the furrows of the first flat, and seeds of velvetleaf, morningglory, common chickweed, cocklebur, and blackgrass were planted in the furrows of the second flat. The five-row template was employed to firmly press the seeds into place. A topping soil of equal portions of sand and sandy loam soil was placed uniformly on top of each flat to a depth of approximately 0.5 cm. Flats for postemergence testing were prepared in the same manner except that they were planted 8-12 days prior to the preemergence flats and were placed in a greenhouse and watered, thus allowing the seeds to germinate and the foliage to develop.
(§3) In both pre- and postemergence tests, a stock solution of the candidate herbicide was prepared by dissolving 0.27 g of the compound in 20 mL of water/acetone (50/50) containing 0.5% v/v sorbitan monolaurate. For an application rate of 3000 g/ha of herbicide a 10 mL portion of the stock solution was diluted with water/acetone (50/50) to 45 mL.
(§4) The preemergence flats were initially subjected to a light water spray. The four flats were placed two by two along a conveyor belt (i.e., the two preemergence followed by the two postemergence flats). The conveyor belt fed under a spray nozzle mounted about ten inches above the postemergent foliage. The preemergent flats were elevated on the belt so that the soil surface was at the same level below the spray nozzle as the foliage canopy of the postemergent plants. The spray of herbicidal solution was commenced and once stabilized, the flats were passed under the spray at a speed to receive a coverage equivalent of 1000 L/ha. At this coverage the application rates are those shown in the above table for the individual herbicidal solutions. The preemergence flats were watered immediately thereafter, placed in the greenhouse and watered regularly at the soil surface. The postemergence flats were immediately placed in the greenhouse and not watered until 24 hours after treatment with the test solution. Thereafter they were regularly watered at ground level. After 17-21 days the plants were examined and the phytotoxicity data were recorded.
(§5) Herbicidal activity data at selected application rates are given for various compounds of this invention in Table 2 and Table 3. The test compounds are identified by numbers which correspond to those in Table 1.
(§6) Phytotoxicity data were taken as percent control. Percent control was determined by a method similar to the 0 to 100 rating system disclosed in "Research Methods in Weed Science," 2nd ed., B. Truelove, Ed.; Southern Weed Science Society; Auburn University, Auburn, Ala., 1977.

The test system of experiment [2] is Chickweed. As to the kind of experiment: Preemergence herbicidal activity, chickweed. It counts as in vivo. The settings on record: Stellaria media, pre-emergence, 0.3 kg/ha, after 17-21 days, read-out: Preemergence herbicidal activity (% control), Chickweed. As to the method:
as §1, §2, §3, §4, §5, §6

Experiment [3] concerns Corn. As to the kind of experiment: Preemergence herbicidal activity, corn. Format: in vivo, Zea mays var. Agway 425X. The settings on record: Zea mays, pre-emergence, 0.3 kg/ha, after 17-21 days, read-out: Preemergence herbicidal activity (% control), Corn. As to the method:
as §1, §2, §3, §4, §5, §6

Experiment [4] relates to Soybean. The experiment can be described thus: Postemergence herbicidal activity, soybean. It counts as in vivo, Glycine max var. Williams. Particulars: Glycine max, post-emergence, 0.3 kg/ha, after 17-21 days, read-out: Postemergence herbicidal activity (% control), Soybean. On the procedure:
as §1, §2, §3, §4, §5, §6

Experiment [5] concerns Johnsongrass. As to the kind of experiment: Postemergence herbicidal activity, johnsongrass. Particulars: Sorghum halepense, post-emergence, 0.3 kg/ha, after 17-21 days, read-out: Postemergence herbicidal activity (% control), Johnsongrass. Format: in vivo. As to the method:
as §1, §2, §3, §4, §5, §6

Experiment [6] has as its system Green foxtail. As to the kind of experiment: Preemergence herbicidal activity, green foxtail. It counts as in vivo. The settings on record: Setaria viridis, pre-emergence, 0.3 kg/ha, after 17-21 days, read-out: Preemergence herbicidal activity (% control), Green foxtail. As to the method:
as §1, §2, §3, §4, §5, §6

For experiment [7], the system named is Chickweed. As to the kind of experiment: Postemergence herbicidal activity, chickweed. Particulars: Stellaria media, post-emergence, 0.3 kg/ha, after 17-21 days, read-out: Postemergence herbicidal activity (% control), Chickweed. It counts as in vivo. On the procedure:
as §1, §2, §3, §4, §5, §6

Experiment [8] has as its system Wheat. The experiment can be described thus: Postemergence herbicidal activity, wheat. It counts as in vivo, Triticum aestivum var. Wheaton. The settings on record: Triticum aestivum, post-emergence, 0.3 kg/ha, after 17-21 days, read-out: Postemergence herbicidal activity (% control), Wheat. As to the method: as §1, §2, §3, §4, §5, §6
Experiment [9] concerns Cocklebur. As to the kind of experiment: Postemergence herbicidal activity, cocklebur. Format: in vivo, Xanthium pensylvanicum. The settings on record: Xanthium strumarium, post-emergence, 0.3 kg/ha, after 17-21 days, read-out: Postemergence herbicidal activity (% control), Cocklebur. On the procedure: as §1, §2, §3, §4, §5, §6
Experiment [10] has as its system Blackgrass. As to the kind of experiment: Preemergence herbicidal activity, blackgrass. Format: in vivo, Aloepecurus myosuroides. The settings on record: Alopecurus myosuroides, pre-emergence, 0.3 kg/ha, after 17-21 days, read-out: Preemergence herbicidal activity (% control), Blackgrass. As to the method: as §1, §2, §3, §4, §5, §6
Experiment [11] deals with Corn. The experiment can be described thus: Postemergence herbicidal activity, corn. Format: in vivo, Zea mays var. Agway 425X. The settings on record: Zea mays, post-emergence, 0.3 kg/ha, after 17-21 days, read-out: Postemergence herbicidal activity (% control), Corn. On the procedure: as §1, §2, §3, §4, §5, §6
Experiment [12] deals with Velvetleaf. As to the kind of experiment: Postemergence herbicidal activity, velvetleaf. Format: in vivo. Particulars: Abutilon theophrasti, post-emergence, 0.3 kg/ha, after 17-21 days, read-out: Postemergence herbicidal activity (% control), Velvetleaf. On the procedure:
as §1, §2, §3, §4, §5, §6

The test system of experiment [13] is Soybean. As to the kind of experiment: Preemergence herbicidal activity, soybean. Format: in vivo, Glycine max var. Williams. Particulars: Glycine max, pre-emergence, 0.3 kg/ha, after 17-21 days, read-out: Preemergence herbicidal activity (% control), Soybean. As to the method: as §1, §2, §3, §4, §5, §6
For experiment [14], the system named is Wheat. The experiment can be described thus: Preemergence herbicidal activity, wheat. Format: in vivo, Triticum aestivum var. Wheaton. The settings on record: Triticum aestivum, pre-emergence, 0.3 kg/ha, after 17-21 days, read-out: Preemergence herbicidal activity (% control), Wheat. On the procedure: as §1, §2, §3, §4, §5, §6
Experiment [15] deals with Cocklebur. The experiment can be described thus: Preemergence herbicidal activity, cocklebur. Format: in vivo, Xanthium pensylvanicum. Particulars: Xanthium strumarium, pre-emergence, 0.3 kg/ha, after 17-21 days, read-out: Preemergence herbicidal activity (% control), Cocklebur. On the procedure: as §1, §2, §3, §4, §5, §6
Experiment [16] deals with Blackgrass. The experiment can be described thus: Postemergence herbicidal activity, blackgrass. Format: in vivo, Aloepecurus myosuroides. The settings on record: Alopecurus myosuroides, post-emergence, 0.3 kg/ha, after 17-21 days, read-out: Postemergence herbicidal activity (% control), Blackgrass. On the procedure:
as §1, §2, §3, §4, §5, §6

In experiment [17] the test system is Morningglory. The experiment can be described thus: Preemergence herbicidal activity, morningglory. It counts as in vivo, Ipomea lacunosa or Ipomea hederacea. Particulars: Ipomoea, pre-emergence, 0.3 kg/ha, after 17-21 days, read-out: Preemergence herbicidal activity (% control), Morningglory. On the procedure: as §1, §2, §3, §4, §5, §6
In experiment [18] the test system is Morningglory. The experiment can be described thus: Postemergence herbicidal activity, morningglory. Format: in vivo, Ipomea lacunosa or Ipomea hederacea. Particulars: Ipomoea, post-emergence, 0.3 kg/ha, after 17-21 days, read-out: Postemergence herbicidal activity (% control), Morningglory. On the procedure: as §1, §2, §3, §4, §5, §6
Experiment [19] concerns Green foxtail. The experiment can be described thus: Postemergence herbicidal activity, green foxtail. Format: in vivo. The settings on record: Setaria viridis, post-emergence, 0.3 kg/ha, after 17-21 days, read-out: Postemergence herbicidal activity (% control), Green foxtail. As to the method:
as §1, §2, §3, §4, §5, §6

Experiment [20] deals with Velvetleaf. The experiment can be described thus: Preemergence herbicidal activity, velvetleaf. Format: in vivo. Particulars: Abutilon theophrasti, pre-emergence, 0.3 kg/ha, after 17-21 days, read-out: Preemergence herbicidal activity (% control), Velvetleaf. As to the method: as §1, §2, §3, §4, §5, §6

Consider `Cn1c(C(F)(F)F)cc(=O)n(-c2ccc(OCc3cc(Cl)cc(Cl)c3)cc2)c1=O` [Compound 43], for which the activity at 300 g/ha in experiment [1] was 0%; in [2], 0%; in [3] it was 0%; in experiment [4], 10%; in [5] it was 30%; in experiment [6] it was 0%. Further, the activity at 300 g/ha stood at 0% in [7]; 0% in experiment [8]; 0% in experiment [9]; 0% in experiment [10]; 30% in experiment [11]; 0% in experiment [12]. Moreover, the activity at 300 g/ha in experiment [13] is 0%; in experiment [14], 0%; in experiment [15] it was 0%; in experiment [16] it was 0%; in experiment [17], 0%; in experiment [18], 10%. The activity at 300 g/ha in experiment [19] and in experiment [20] was 0% in each case.

As to `Cn1c(C(F)(F)F)cc(=O)n(-c2ccc(OCc3ccc(Cl)cc3)cc2F)c1=O` [Compound 10, 3-[4-(4-Chlorophenylmethoxy)-2-fluorophenyl]-1-methyl-6-trifluoromethyluracil], the activity at 300 g/ha in experiment [1] is 95%; in [2] it was 100%; in [3], 20%; in [4], 95%; in [5], 95%; in [6], 100%. For the same compound, the activity at 300 g/ha in experiment [7] was 100%; in experiment [8], 10%; in experiment [9] it was 100%; in experiment [10] it was 50%; in experiment [11] it was 50%; in experiment [12], 100%. Moreover, the activity at 300 g/ha in experiment [13] amounted to 100%; in experiment [14], 20%; in experiment [15], 100%; in experiment [16], 40%; in experiment [17] it was 100%; in experiment [18] it was 100%. For the same compound, the activity at 300 g/ha in experiment [19] and in experiment [20] was 100% each time.

On to `COc1ccc(COc2ccc(-n3c(=O)cc(C(F)(F)F)n(C)c3=O)cc2)cc1` [Compound 44], for which the activity at 300 g/ha in experiment [1] was found to be 10%; in [2] it was 20%; in experiment [3], 0%; in [4] it was 40%; in experiment [5], 50%; in experiment [6] it was 60%. Moreover, the activity at 300 g/ha in experiment [7] is 20%; in [8] it was 10%; in [9], 50%; in [10], 20%; in experiment [11], 30%; in [12], 40%. Moreover, the activity at 300 g/ha was 40% in experiment [13]; 10% in experiment [14]; 25% in experiment [15]; 50% in experiment [16]; 100% in experiment [17]; 90% in [18]. For the same compound, the activity at 300 g/ha in [19] stood at 70%; in experiment [20], 100%.

Regarding `Cn1c(C(F)(F)F)cc(=O)n(-c2ccc(OCc3ccc(F)cc3)cc2F)c1=O` [Compound 11], the activity at 300 g/ha in experiment [1] was 95%; in [2], 100%; in experiment [3], 85%; in [4] it was 80%; in experiment [5] it was 100%; in [6], 100%. Also, the activity at 300 g/ha in experiment [7] is 80%; in experiment [8] it was 20%; in experiment [9] it was 100%; in [10], 20%; in experiment [11], 70%; in [12] it was 100%. Further, the activity at 300 g/ha in experiment [13] amounted to 85%; in [14], 20%; in experiment [15] it was 90%; in [16], 0%; in experiment [17], 100%; in experiment [18], 100%. Besides, the activity at 300 g/ha in [19] and in experiment [20] was 100% throughout.

In the case of `COc1cccc(COc2ccc(-n3c(=O)cc(C(F)(F)F)n(C)c3=O)cc2)c1` [Compound 8], the activity at 300 g/ha in [1] was 80%; in experiment [2], 90%; in experiment [3] it was 35%; in experiment [4], 85%; in experiment [5], 100%; in experiment [6], 100%. Besides, the activity at 300 g/ha turned out to be 100% in experiment [7]; 10% in experiment [8]; 100% in [9]; 10% in [10]; 85% in experiment [11]; 100% in experiment [12]. Besides, the activity at 300 g/ha in experiment [13] amounted to 10%; in experiment [14], 15%; in [15], 0%; in [16] it was 10%; in [17] it was 65%; in experiment [18], 100%. In addition, the activity at 300 g/ha in experiment [19] and in experiment [20] was 100% each time.
